Assay [1] has as its system Balb 3T3 cells. Put plainly: DNA synthesis by BrdU incorporation. It counts as cell-based, mouse. As to conditions: for effect of the mutation on FGF-1 induced BrdU incorporation: 5 ng/ml, 5 μg/ml heparin, 24 h; for DNA synthesis: phenotype of FGF-1 mutants, Table 2. How it is done:
Balb 3T3 cells were plated on cover slips in 6-well culture plates, serum starved (DMEM, 0.4% fetal calf serum) for 48 h, and stimulated with 5 ng/ml wild-type and mutant FGF-1s in the presence of 5 μg/ml heparin for 24 h. BrdU was added to the medium for the last 6 h of the incubation. Cells were fixed and incubated with anti BrdU antibody. BrdU incorporated cells were stained with DAB. The mean value of BrdU positive cells from wild type-treated culture was set to 100%, and the corresponding results from mutant-treated cultures were scaled accordingly. Results are shown as means±S.D. Asterisks indicate significant differences (p<0.05) compared with wild type treatment.
DNA synthesis was measured by BrdU incorporation. Balb 3T3 cells were plated on sterile cover slips in 6-well culture plates and serum starved in DMEM supplemented with 0.4% fetal calf serum for 48 h, and stimulated with 5 ng/ml wild type and mutant FGF-1s for 24 h in the presence and absence of 5 μg/ml heparin. BrdU (10 μg/ml) was added to the medium for the last 6 h of the incubation. Cells were then fixed with 70% ethanol and incubated with 2N HCI. After the medium was neutralized with 0.1 M borate buffer (pH 8.5), the cells were incubated with anti-BrdU antibody (BD PharMingen, San Diego, Calif.). BrdU incorporated cells were stained with HRP conjugated secondary antibody (Biorad) and metal enhanced diaminobenzidine substrate kit (Pierce, Rockford, Ill.). Diaminobenzidine positive and negative cells were counted from the digital images of three independent fields.
A general note: Incorporation of labelled thymidine or its analogues reports DNA synthesis.

For assay [2], the system named is Balb 3T3 cells. Put plainly: Scratch wound healing assay. As to conditions: for Wound healing: phenotype of FGF-1 mutants, Table 2; for effect on migration of Balb3T3 cells in scratch wound healing assays: with 5 μg/ml heparin, 24 h. It counts as cell-based, mouse. Here is the method: Confluent serum-starved Balb 3T3 cells were scratched. After washing with serum-free medium, cells were incubated in DMEM containing 5 μg/ml heparin and 5 ng/ml wild-type or mutant FGF-1s for 24 h at 37° C. Controls contain medium alone (none) or medium containing 10% fetal calf serum (FCS).
Balb 3T3 cells were plated into 6-well cell culture plate. Cells were allowed to grow in DMEM containing 10% fetal calf serum for overnight, and then cells were washed with serum-free medium and starved for 24 h. A scratch was made across the cell layer using a pipette tip. After washing with serum-free medium twice, DMEM containing 10 ng/ml wild type or mutant FGF-1 together with 5 μg/ml heparin were added to cells. Plates were photographed at 0, 6, 12, and 24 h.

Assay [3] is described as follows: Heparin binding assay (heparin sepharose column, NaCl step elution). As to conditions: for Heparin binding: phenotype of FGF-1 mutants, Table 2. How it is done:
Partially purified wt and mutant FGF1 in 100 mM NaCl and 50 mM Tris (pH 7.4) were applied to a heparin sepharose column (1 ml bed volume). The column was washed with the same buffer and bound proteins were eluted with a stepwise increase in NaCl concentration from 0.1 to 1.2 M. Fractions were analyzed by SDS-polyacrylamide gradient gel electrophoresis. Proteins were visualized by Coomassie Brilliant Blue staining.
Wild type and mutant FGF-1 in 100 mM NaCl and 50 mM Tris/HCI (pH 7.4) were applied to heparin sepharose column (1 ml bed volume). The column was washed with same buffer, and bound proteins were eluted with a stepwise increase in NaCl concentration from 0.1 to 1.2 M. Fractions were analyzed by SDS-polyacrylamide gradient gel electrophoresis. Proteins were visualized by Coomassie Brilliant Blue staining.

The subject of a further assay is FRS2α. Put plainly: FRS2 phosphorylation, western blot. It counts as cell-based. As to conditions: mouse fibroblasts. How it is done:
The same cell lysates as described above were analyzed by western blotting with anti-phospho FRS2 or anti-FRS2, where; 1: Wild type; 2: R50E; 3: 4xE; 4: 3xA; 5: None; and 6: FBS.
This experiment tested how the FGF1 mutations affect phosphorylation of FRS2α.
A general note: A western blot detects proteins with antibodies after separation by electrophoresis.

In assay [4] the test system is Balb 3T3 cells. Put plainly: Chemotaxis assay (Transwell). Conditions: for effect of the mutation on FGF-1-induced chemotaxis: 5 ng/ml, 24 h; for Chemotaxis: phenotype of FGF-1 mutants, Table 2. Format: cell-based, mouse. Here is the method: The bottom of the polycarbonate filter of the Transwell apparatus was coated with 10 μg/ml of fibronectin. The lower chamber contained 600 μI of serum-free DMEM containing 5 ng/ml wild-type or mutants FGF-1. Balb 3T3 cells (10^5 cells/filter) were plated on filter and incubated 37° C. for 24 h, and cells were stained with crystal violet. Cells that migrated to the bottom side of the membrane were counted. Results are expressed as means of the number of migrated cells in 2 fields.
A polycarbonate filter of 8 μm pore size of the Transwell insert was coated with 10 μg/ml of fibronectin (Sigma) overnight at 4° C. After washing, the insert was placed into a 24-well cell culture plate, and the lower portion of the plate was filled with 600 μl of serum-free DMEM containing 5 ng/ml wild type or mutant FGF-1. Balb 3T3 cells (10^5 cells/filter) were plated on filter and incubated 37° C. for 24 h, and cells were visualized by crystal violet staining (0.5% crystal violet in 50 mM Borate, pH 9.0, and 2% ethanol). The uncoated side of each filter was wiped with a cotton swab to remove cells that had not migrated through the filter. Migrated cells were counted from the digital images of stained cells. Determining the mean number of cells counted per field. Results are expressed as means±SD of the relative cell number with non-stimulated cells set as 100).

Assay [5] concerns Human microvascular endothelial (HMVE) cells. Briefly: Tube formation by endothelial cells on Matrigel. Format: cell-based. As to conditions: 24 h. How it is done:
Digital images were taken by using a fluorescent microscope and analyzed by using ImageJ, using human microvascular endothelial (HMVE) cells added to the matrix-coated wells of 96-well plates at 2×10^4 cells/well in medium M-131 plus 0.1% hydrocortisone and 0.1% FBS for. Cells were incubated for 24 h in the presence of wt or mutant FGF. To enhance images, calcein AM was added to the medium.
Wells of 96-well FluoroNunc black plates were coated with 50 μl of matrigel basement membrane matrix (BD Bioscience) and allowed to gel at 37° C. for 30 min. Endothelial cells growing on the tissue culture plastic were trypsinized, washed, and added to the matrix-coated wells at 2×10^4 cells/well. Plating was performed in medium M-131 plus 0.1% hydrocortisone and 0.1% FBS for Human microvascular endothelial (HMVE) cells. Cells were incubated for 24 h in the presence of wt or mutant FGF. To enhance images, calcein AM (Invitrogen) was added to the medium (10 μg/ml) and incubated for 15 min at 37° C. Digital images were taken by using a fluorescent microscope and analyzed by using ImageJ. (FIGS. 9A and 9B).

For a further assay, the system named is K562 cells. Put plainly: Cell adhesion assay on immobilized FGF-1, mock-transfected K562 cells. Conditions: 1 mM MnCl2. Format: cell-based. Here is the method:
K562 cells were treated with 10 μg/ml anti-α5 function-blocking antibody KH72 (square) or mouse IgG (diamond) for 10 min on ice. Hepes-Tyrode buffer supplemented with 1 mM MnCl2) was used for adhesion assays. Bound cells were quantified by measuring endogenous phosphatase activity. BSA (cross) was used as a negative control. Data is shown as means+/−SD of triplicate experiments.
Wells of polystyrene 96-well non-tissue culture plate were coated with wild type or mutants FGF-1 as above. In adhesion assay, cells (10^5 cells/well) in 100 μl of Hepes-Tyrode buffer supplemented with 1 mM Mn^2+ were added to the wells and incubated at 37° C. for 1 h. After non-bound cells were removed by rinsing the wells with the same buffer, bound cells were quantified by measuring endogenous phosphatase activity (Prater et al., 1991)

As for “R50E: FGF-1 mutant with the Arg-50 to Glu (R50E) mutation”, in the assay with Balb 3T3 cells [1], the “effect of the mutation on FGF-1 induced BrdU incorporation” value was “significantly blocked” and the DNA synthesis entry was “Low”. Besides, in the assay with Balb 3T3 cells [2], the Wound healing entry is “Low” and the “effect on migration of Balb3T3 cells in scratch wound healing assays” value (shortened to “effect on migration of Balb3T3 cells”) is listed as “effectively blocked”. Also, in assay [3], the “effect of the mutation on heparin binding to FGF-1” value (from here on “effect of the mutation … to FGF-1”) was “did not” and the Heparin binding result is “Normal”. Also, the FRS2α phosphorylation result in the assay with FRS2α was “abolished”. In addition, in the assay with Balb 3T3 cells [4], the “effect of the mutation on FGF-1-induced chemotaxis” value is recorded as “blocked” and the Chemotaxis result is “Low”. Besides, the “tube formation by endothelial cells on matrigel” value in assay [5] was “block tube formation”.
As to “Wild type: human FGF-1 (acidic FGF), wild type, expressed in E. coli”, in the assay on K562 cells, the “adhesion of mock-transfected K562 cells to the immobilized protein” value is listed as “bound to immobilized FGF-1 in a dose-dependent manner”. Further, the DNA synthesis entry in the assay with Balb 3T3 cells [1] is recorded as “Normal”. In the assay on Balb 3T3 cells [2], the Wound healing result was “Normal”. Also, the Heparin binding entry in assay [3] is “Normal”. For the same molecule, in the assay on FRS2α, the FRS2α phosphorylation result is recorded as “induced”. Moreover, the Chemotaxis entry in the assay on Balb 3T3 cells [4] is on record as “Normal”. Moreover, the “tube formation by endothelial cells on matrigel” value in assay [5] is “enhanced”.

B1: 4xE: FGF-1 mutant, Lys127/Lys128/Lys133/Arg134 simultaneously to Glu (protein)
chain: FNLPPGNYKKPKLLYCSNGGHFLRILPDGTVDGTRDRSDQHIQLQLSAESVGEVYIKSTETGQYLAMDTDGLLYGSQTPNEECLFLERLEENHYNTYISKKHAEKNWFVGLEENGSCEEGPRTHYGQKAILFLPLPVSSD
With B1, in the assay with Balb 3T3 cells [1], the “effect of the mutation on FGF-1 induced BrdU incorporation” value is reported as “significantly blocked” and the DNA synthesis result is reported as “Low”. Besides, in the assay with Balb 3T3 cells [2], the Wound healing entry is “Low” and the “effect on migration of Balb3T3 cells” value is reported as “effectively blocked”. In addition, in assay [3], the “effect of the mutation … to FGF-1” value is given as “completely blocked” and the Heparin binding result is on record as “Low”. Besides, the FRS2α phosphorylation result in the assay with FRS2α is on record as “abolished”. Further, in the assay with Balb 3T3 cells [4], the “effect of the mutation on FGF-1-induced chemotaxis” value is “blocked” and the Chemotaxis result was “Low”.

B2: 3xA: FGF-1 mutant, three residues in the FGFR binding site (Glu102/Tyr109/Asn110) to Ala (protein)
chain: FNLPPGNYKKPKLLYCSNGGHFLRILPDGTVDGTRDRSDQHIQLQLSAESVGEVYIKSTETGQYLAMDTDGLLYGSQTPNEECLFLARLEENHAATYISKKHAEKNWFVGLKKNGSCKRGPRTHYGQKAILFLPLPVSSD
In the case of B2, in the assay with Balb 3T3 cells [1], the “effect of the mutation on FGF-1 induced BrdU incorporation” value was “also blocked” and the DNA synthesis entry was “Low”. In the assay with Balb 3T3 cells [2], the Wound healing result was “Low” and the “effect on migration of Balb3T3 cells” value was “effectively blocked”. Moreover, in assay [3], the “effect of the mutation … to FGF-1” value is “did not” and the Heparin binding result is “Normal”. Moreover, in the assay with FRS2α, the FRS2α phosphorylation entry is “abolished”. Also, in the assay on Balb 3T3 cells [4], the Chemotaxis entry is on record as “Low”.

Source of the values: patent US8796209B2, “Compositions and methods related to anti-FGF agents” (The Regents of the University of California, priority 2005, dated 2014).
